# Test system: rats
# Experiment: Radial arm maze, scopolamine-induced working memory deficit
# Format: in vivo
# Details: scopolamine 0.5 mg/kg IP, FIG. 2
# Experimental: Several mazes, such as the radial arm maze (RAM) have been adapted to assess working memory in rodents. The RAM consists of eight long runways radiating out in a circle from a central compartment. In the RAM rats learn to retrieve food rewards from all or a sub-set of the arms. Working memory is assessed by measuring entries into previously baited arms within a given trial. […] Hippocampal lesions produce deficits both in adults and in the neonatal hippocampal lesion model of schizophrenia.
# For training, food deprived rats were placed in an enclosed cylinder in the center of the maze for 20 s, prior to being allowed to explore the maze by removing the cylinder. Each radial arm is baited with a food reward. Animals were given a maximum of 5 minutes to retrieve all food rewards. This training continued once daily for three weeks until animals met the performance criteria for successful acquisition of the task.
# Four parameters were recorded to assess the performance of the rat: (1) the number of errors, which is defined as entering an arm that had already been entered, (2) the number of consecutive entries into un-visited arms before the first error occurred (entries to repeat), (3) latency to complete the task, and (4) the total number of arm entries before all food in the eight arms is collected or the maximum session duration is reached. […]
smiles,measurement,value
"CN1[C@@H]2C[C@@H](OC(=O)[C@H](CO)c3ccccc3)C[C@H]1[C@@H]1O[C@@H]12 [scopolamine, reference compound]",Entries to repeat in the radial arm maze compared to baseline,decreased entries to repeat

# — patent US20180228799A1, “Treatment for Neurological and Mental Disorders” (PSYCHOGENICS, INC., priority 2008, published 2018)
